For series [1], the system named is Pseudomonas aeruginosa strain PAO1. Kind of series: Initial susceptibility testing at a fixed concentration. The series is classed as cell-based. On the set-up: key: Tick (✓) represents OD600 comparable to no-growth control; cross (✗) represents OD600 comparable to growth control without any peptide. The following applies: 256 μg mL−1 of peptide, overnight incubation, OD600 compared with growth and no-growth controls.

Series [2] relates to P. aeruginosa strain PAO1. The following applies: for MIC PAO1: PAO1, 16 h.
Series [3] relates to P. aeruginosa strain PA14. To be noted: for MIC PA14: PA14, 16 h; for MIC for PA14: PA14, 18 h.
For series [4], the system named is P. aeruginosa.
Series [5] concerns PAO1 strain containing plasmid pUCP20, which encodes a β-lactamase. The series can be described thus: MIC determination using broth microdilution method. The series is classed as cell-based, Pseudomonas aeruginosa. (In broth dilution the organism is exposed to a series of concentrations in liquid medium.)
Series [6] can be described thus: Background stability in PBS buffer. The series is classed as physicochemical. To be noted: PBS buffer pH 7.4 (50 mM), 37 °C, HPLC at 280 nm, Fig. 5a; values not given.
For the next series, the system named is Escherichia coli DH5a. To be noted: 16 h.
The test system of series [7] is Klebsiella pneumoniae CK1. To be noted: CK1, 16 h.
Series [8] relates to Serratia marcescens ATCC39006. To be noted: ATCC39006, 16 h.
For series [9], the system named is Enterococcus faecalis ATCC29212. The following applies: ATCC29212, 16 h.
The conditions of series [10]: human serum 100 µL in 400 µL MES buffer (pH 6, 50 mM), 37 °C, protein precipitated with 1:1 DMSO:ethanol, HPLC at 220 nm, caffeine standard; Fig. 5b, values not given.
For series [11], the system named is Burkholderia thailandensis E264. The following applies: Table 4; broth microdilution in MH medium, 37 °C, 16 h.
Series [12] has as its system Methicillin-resistant Staphylococcus aureus MRSA15. The following applies: Table 4; broth microdilution in MH medium, 37 °C, 16 h.
The subject of series [13] is P. aeruginosa. The series can be described thus: Drug synergism assay. The class given is cell-based, Pseudomonas aeruginosa. The following applies: P2a combined with ciprofloxacin, checkerboard in MH medium, 37 °C, 16 h; synergy threshold 0.5; strain not stated. As for the experimental part: measured and 15 µL of thiazolyl blue tetrazolium bromide (MTT; 1 mg/mL stock solution in water; Acros) was added to each well of the plate. The MIC was defined as the lowest concentration of the compound with a colourless well indicating no bacterial growth and the results cross-checked with OD600 reading. Each sample was run in triplicate on the same plate. Polymyxin B or ciprofloxacin or both were used as positive controls to ensure comparability of results across different experiments.
Bacterial culture was quantified by measuring the OD600, medium exchanged to MH-medium and culture diluted to OD600 of 0.022 in MH-medium. Stock solution of compound A was diluted to twice the starting concentration in MH medium. […] The next day, OD600 of the microtiter plate was measured and 15 µL of thiazolyl blue tetrazolium bromide (MTT; 1 mg/mL stock solution in water) was added to each well of the plate to cross-check the OD600 readings. […]
150 µL of the solution was added to 96-well plate (3 wells per bacterium) as well as 150 µL of MH medium as a negative control (further 3 wells per bacterium). The media were inoculated with 4 µL of the diluted bacterial solution and incubated in a plate reader at 37◦C for 16 h and absorption at 482 nm (Abs482) and 600 nm (OD600) was continuously measured throughout the incubation. […]

In brackets after ≈: the same amount, converted by molar mass. Where two headings read alike, the source gives them in different places. Where a SMILES comes first, the peptide text is derived from it. Where no end group is shown, it is not given here.

Usually MIC stands for the lowest concentration found to suppress growth. `C[C@@H]1NC(=O)[C@H](Cc2c[nH]c3ccccc23)NC(=O)[C@H](CCCCN)NC(=O)[C@@H](NC(=O)[C@@H](N)Cc2ccccc2)CSCCc2cc(nc(NCCCc3ccccc3)n2)CCSC[C@@H](C(=O)N[C@@H](CCCCN)C(=O)N[C@@H](CCCCN)C(N)=O)NC(=O)[C@H](Cc2c[nH]c3ccccc23)NC(=O)[C@H](CCCCN)NC(=O)[C@H](Cc2ccccc2)NC1=O` [P2-1] (HELM PEPTIDE1{F.C.K.W.A.F.K.W.C.K.K.[am]}|CHEM1{[c1ccc(CCCNc2nc(CC[*:1])cc(CC[*:2])n2)cc1]}$PEPTIDE1,CHEM1,2:R3-1:R1|PEPTIDE1,CHEM1,9:R3-1:R2$$$V2.0): the “Inh (inhibition)” value in series [1] is given as “✓”. In addition, the “MIC PAO1” value in series [2] worked out at 16 µg/mL (≈ 9.2 µM). Moreover, the “MIC PA14” value in series [3] amounted to 16 µg/mL (≈ 9.2 µM). Besides, the “MIC of peptide-staple combinations (heat map)” value with P. aeruginosa [4] is listed as “best activity”. For the same compound, the MIC against P. aeruginosa [4] (18 h) fell in the range of 8 to 16 µg/mL.

On to `C[C@H](NC(=O)[C@H](Cc1c[nH]c2ccccc12)NC(=O)[C@H](CCCCN)NC(=O)[C@H](CS)NC(=O)[C@@H](N)Cc1ccccc1)C(=O)N[C@@H](Cc1ccccc1)C(=O)N[C@@H](CCCCN)C(=O)N[C@@H](Cc1c[nH]c2ccccc12)C(=O)N[C@@H](CS)C(=O)N[C@@H](CCCCN)C(=O)N[C@@H](CCCCN)C(N)=O` [P2] (H-FCKWAFKWCKK-NH2), for which the “Inh (inhibition)” value in series [1] was “✗”. Besides, in [2], the “MIC PAO1” value was 32 µg/mL (≈ 21.7 µM). Moreover, the “MIC PA14” value in series [3] worked out at 32 µg/mL (≈ 21.7 µM).

`C[C@@H]1NC(=O)[C@H](Cc2c[nH]c3ccccc23)NC(=O)[C@H](CCCCN)NC(=O)[C@@H](NC(=O)[C@@H](N)Cc2ccccc2)CSCCc2cc(nc(NCCCC(=O)N[C@@H]3C(=O)N4C(C(=O)O)C(COC(=O)N5CCN(c6cc7c(cc6F)c(=O)c(C(=O)O)cn7C6CC6)CC5)=CS[C@H]34)n2)CCSC[C@@H](C(=O)N[C@@H](CCCCN)C(=O)N[C@@H](CCCCN)C(N)=O)NC(=O)[C@H](Cc2c[nH]c3ccccc23)NC(=O)[C@H](CCCCN)NC(=O)[C@H](Cc2ccccc2)NC1=O` (stereo partly drawn) [P2-10]: the “reduction in MIC in PAO1 with plasmid pUCP20 versus PAO1” value in [5] (Fig. 4 and Table 3) is “one half”. For the same compound, the “background hydrolysis rate mediated by buffer only” value in series [6] is recorded as “significantly lower than when β-lactamase was present”. Also, the “MIC for PAO1” value in [2] (PAO1, 18 h) is 7.0 µM. Besides, the “PAO1 MIC” value in series [2] (Table S3, initial MIC values) stood at 16 µg/mL. For the same compound, the “MIC for PAO1 after adding β-lactamase” value in series [2] (medium supplemented with 1 nM recombinant β-lactamase) was 2 µg/mL. Further, the “MIC for PA14” value in series [3] is 7.0 µM. Moreover, the “PA14 MIC” value in series [3] (Table S3, initial MIC values) is listed as 16 µg/mL. Besides, the MIC was 1 µg/mL (≈ 0.439 µM) against Escherichia coli DH5a, at least 64 µg/mL in series [7], 16 µg/mL (≈ 7.03 µM) in series [8] and 16 µg/mL (≈ 7.03 µM) in series [9]. For the same compound, the serum stability result in [10] is given as “improved stability over unstapled P2a”.

For the compound `CC(=O)OCC1=C(C(=O)O)N2C(=O)[C@@H](NC(=O)CCCNc3nc4cc(n3)CCSC[C@H](NC(=O)[C@@H](N)Cc3ccccc3)C(=O)N[C@@H](CCCCN)C(=O)N[C@@H](Cc3c[nH]c5ccccc35)C(=O)N[C@@H](C)C(=O)N[C@@H](Cc3ccccc3)C(=O)N[C@@H](CCCCN)C(=O)N[C@@H](Cc3c[nH]c5ccccc35)C(=O)N[C@H](C(=O)N[C@@H](CCCCN)C(=O)N[C@@H](CCCCN)C(N)=O)CSCC4)[C@H]2SC1` [P2-8], the “MIC for PAO1” value in [2] (PAO1, 18 h) is above 33 µM. For the same compound, in [3], the “MIC for PA14” value was above 33 µM. Further, the MIC with Escherichia coli DH5a is 32 µg/mL (≈ 16.3 µM); in series [7] it was at least 64 µg/mL; in series [11] it was at least 64 µg/mL; in [8], at least 64 µg/mL; in [12], 64 µg/mL (≈ 32.6 µM); in series [9], 2 µg/mL (≈ 1.02 µM). In series [10], the serum stability entry was “improved stability over unstapled P2a”.

Regarding `CC(=O)N[C@@H](Cc1c[nH]c2ccccc12)C(=O)N[C@H]1CSCCc2cc(nc(NCCCc3ccccc3)n2)CCSC[C@@H](C(=O)N[C@@H](Cc2ccccc2)C(N)=O)NC(=O)CNC(=O)[C@H](CCCNC(=N)N)NC(=O)[C@H](Cc2ccccc2)NC(=O)[C@H](CCCCN)NC(=O)[C@H](CCCCN)NC(=O)[C@H](CC(C)C)NC1=O` [P3-1] (HELM PEPTIDE1{[ac].W.C.L.K.K.F.R.G.C.F.[am]}|CHEM1{[c1ccc(CCCNc2nc(CC[*:1])cc(CC[*:2])n2)cc1]}$PEPTIDE1,CHEM1,3:R3-1:R1|PEPTIDE1,CHEM1,10:R3-1:R2$$$V2.0), the “Inh (inhibition)” value in [1] is given as “✗”.

Regarding `CC(C)C[C@H](NC(=O)[C@H](Cc1c[nH]cn1)NC(=O)[C@H](CCCCN)NC(=O)[C@H](CS)NC(=O)[C@H](Cc1ccc(O)cc1)NC(=O)[C@H](CC(N)=O)NC(=O)[C@H](CCC(N)=O)NC(=O)[C@@H](NC(=O)[C@H](Cc1c[nH]c2ccccc12)NC(=O)[C@@H](N)CCCCN)C(C)C)C(=O)NCC(=O)N[C@@H](CCCNC(=N)N)C(=O)N[C@@H](CCCCN)C(=O)N[C@@H](CS)C(=O)N[C@@H](Cc1c[nH]cn1)C(=O)N[C@H](C(=O)N[C@@H](CC(C)C)C(=O)N[C@@H](CCCCN)C(=O)N[C@H](C(N)=O)[C@@H](C)O)[C@@H](C)O` [P6] (H-KWVQNYCKHLGRKCHTLKT-NH2), the “Inh (inhibition)” value in series [1] was “✗”.

In the case of “RFRRLRKKWRKRLKKI-NH2 [P4a, reference compound]”, the “Inh (inhibition)” value in series [1] is recorded as “✓”.

With `CC[C@H](C)[C@H](NC(=O)[C@H](CCCCN)NC(=O)[C@H](CCCCN)NC(=O)[C@H](CS)NC(=O)[C@H](CCCNC(=N)N)NC(=O)[C@H](CCCCN)NC(=O)[C@H](CCCNC(=N)N)NC(=O)[C@H](Cc1c[nH]c2ccccc12)NC(=O)[C@H](CCCCN)NC(=O)[C@H](CCCCN)NC(=O)[C@H](CS)NC(=O)[C@H](CC(C)C)NC(=O)[C@H](CCCNC(=N)N)NC(=O)[C@H](CCCNC(=N)N)NC(=O)[C@H](Cc1ccccc1)NC(=O)[C@@H](N)CCCNC(=N)N)C(N)=O` [P4] (H-RFRRLCKKWRKRCKKI-NH2), the “Inh (inhibition)” value in series [1] is reported as “✗”.

Turning to “FAKWAFKWLKK-NH2 [P2a, reference compound]”, the “Inh (inhibition)” value in [1] is reported as “✗”. For the same compound, the “cell growth inhibition in strain with plasmid versus without” value in series [5] (OD600 growth curve, triplicate, Fig. 4b) is listed as “no difference in cell growth inhibition”. The “fractional inhibitory concentration index” value in the series with P. aeruginosa [13] turned out to be 0.75. The “PAO1 MIC” value in series [2] (PAO1, 18 h) was 11 µM; in series [2] (Table S4, cephalosporin-based staple 8 at different positions), 16 µg/mL. The “MIC PA14” value in [3] turned out to be 64 µg/mL. Further, the “PA14 MIC” value in [3] (Table S3, initial MIC values) amounted to 32 µg/mL; in [3] (Table S4) it was 22 µM. Also, the MIC is 4 µg/mL in the series with Escherichia coli DH5a, at least 64 µg/mL in [8], 32 µg/mL in series [12] and at least 64 µg/mL in [9].
